The results in this text go back to publication PMC12615753, “Glutathione as a taste modulator: molecular mechanisms of interaction with umami and sweet taste receptors” (Food Chemistry: Molecular Sciences, 2025).

One assay has as its target T1, hTAS1R1/rTAS1R3(Mut1) (UniProt Q7RTX1+Q923K1, A277V/L68N/R278H/S168G/S302A).
T1 sequence (Q7RTX1 21-841): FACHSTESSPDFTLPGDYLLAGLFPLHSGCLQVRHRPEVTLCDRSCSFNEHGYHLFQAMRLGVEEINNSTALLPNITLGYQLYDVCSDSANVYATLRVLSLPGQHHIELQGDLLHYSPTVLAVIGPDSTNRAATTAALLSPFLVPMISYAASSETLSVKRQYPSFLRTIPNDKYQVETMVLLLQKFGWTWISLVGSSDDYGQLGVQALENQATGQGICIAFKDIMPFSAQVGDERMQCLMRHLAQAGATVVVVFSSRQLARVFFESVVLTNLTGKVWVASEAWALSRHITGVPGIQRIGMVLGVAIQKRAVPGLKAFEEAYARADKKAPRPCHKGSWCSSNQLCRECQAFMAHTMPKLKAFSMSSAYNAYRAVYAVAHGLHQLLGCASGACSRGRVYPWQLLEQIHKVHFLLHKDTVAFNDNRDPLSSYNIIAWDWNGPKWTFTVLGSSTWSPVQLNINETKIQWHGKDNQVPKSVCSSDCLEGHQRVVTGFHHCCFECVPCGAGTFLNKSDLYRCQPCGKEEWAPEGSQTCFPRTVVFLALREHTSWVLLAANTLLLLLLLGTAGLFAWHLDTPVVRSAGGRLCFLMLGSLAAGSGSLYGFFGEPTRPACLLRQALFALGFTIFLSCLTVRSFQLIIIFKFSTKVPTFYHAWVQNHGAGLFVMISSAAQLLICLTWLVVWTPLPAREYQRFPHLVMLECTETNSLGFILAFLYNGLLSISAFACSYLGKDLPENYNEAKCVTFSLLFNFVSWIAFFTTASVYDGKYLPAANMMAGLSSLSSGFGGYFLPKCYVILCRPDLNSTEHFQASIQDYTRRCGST
T1 sequence (Q923K1 21-858 L68N/S168G/A277V/R278H/S302A): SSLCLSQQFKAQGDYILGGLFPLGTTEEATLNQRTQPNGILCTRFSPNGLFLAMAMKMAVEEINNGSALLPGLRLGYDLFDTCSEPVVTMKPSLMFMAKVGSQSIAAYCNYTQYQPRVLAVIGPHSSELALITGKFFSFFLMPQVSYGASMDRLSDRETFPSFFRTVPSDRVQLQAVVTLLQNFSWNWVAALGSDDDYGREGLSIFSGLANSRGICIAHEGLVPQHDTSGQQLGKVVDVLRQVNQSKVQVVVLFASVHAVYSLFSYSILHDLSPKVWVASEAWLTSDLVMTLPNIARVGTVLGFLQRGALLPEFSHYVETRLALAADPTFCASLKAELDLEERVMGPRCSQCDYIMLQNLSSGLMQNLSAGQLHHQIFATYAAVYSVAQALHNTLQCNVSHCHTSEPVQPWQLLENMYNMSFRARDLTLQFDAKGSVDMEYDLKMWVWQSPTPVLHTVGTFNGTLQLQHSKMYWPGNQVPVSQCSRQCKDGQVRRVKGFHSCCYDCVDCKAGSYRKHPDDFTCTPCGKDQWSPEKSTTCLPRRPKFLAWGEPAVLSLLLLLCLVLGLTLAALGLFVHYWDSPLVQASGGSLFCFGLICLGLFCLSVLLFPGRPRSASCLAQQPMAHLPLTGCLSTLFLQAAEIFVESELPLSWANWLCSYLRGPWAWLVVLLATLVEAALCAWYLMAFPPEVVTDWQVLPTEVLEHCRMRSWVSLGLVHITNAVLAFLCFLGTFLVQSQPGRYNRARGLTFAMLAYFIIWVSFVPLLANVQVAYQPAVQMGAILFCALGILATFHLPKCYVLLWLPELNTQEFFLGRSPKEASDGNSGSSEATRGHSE
The assay can be described thus: Calcium assay, mutated rTAS1R3 co-expressed with hTAS1R1.

A further assay concerns the target T2, hTAS1R1/rTAS1R3(Mut2) (UniProt Q7RTX1+Q923K1, L72W/P67S/S282A/Y281H).
T2 sequence (Q7RTX1 21-841): T1 sequence (Q7RTX1 21-841)
T2 sequence (Q923K1 21-858 P67S/L72W/Y281H/S282A): T1 sequence (Q923K1 21-858 L68N/S168G/A277V/R278H/S302A) with P47S, N48L, L52W, G148S, V257A, H258R, Y261H, S262A, A282S
The description is as above. To be noted: for response to the agonist alone: Mut2.

The structures appear in SMILES notation. Numbering of substitutions follows the chain as printed.

The EC50 is the concentration that produces a half-maximal response.

Experimental for hTAS1R1/rTAS1R3(Mut1): (§1) HEK293T/17 cells (ATCC CRL-11268) were seeded into clear bottom black 96-well plates coated with poly-D-lysine at a density of 32500 cells/well in 100 μL of DMEM containing 4.5 g/L glucose and supplemented with penicillin/streptomycin, 2 mM GlutaMAX and 10 % dialyzed fetal bovine serum. The plates were incubated for 24 h at 37 °C and 7.3 % CO2 in a humidified atmosphere. After incubation, using Fugene® 4 K (0.46 μL/well, Promega, Illkirch, France), the cells were transiently transfected with pcDNA3-hTAS1R1-WT (60 ng/well) or TAS1R1 mutants, pcDNA4-rTAS1R3 (60 ng/well), pcDNA3-Gα15i2 (10 ng/well), and pGP-CMV-GCaMP6s (Addgene #40753; 10 ng/well) as a genetically encoded calcium indicator. Twenty-four hours after transfection, the HEK293T/17 cells were rinsed with 100 μL of C1 buffer (130 mM NaCl, 5 mM KCl, 10 mM HEPES, 2 mM CaCl2, and 5 mM sodium pyruvate, pH 7.4). For each molecule tested, a semi-logarithmic concentration range was created consisting of seven increasing concentrations and a negative control (zero dose) made of buffer C1. Binary mixtures with different molecules were also made to study potential synergy. In this case, the concentration range was tested in C1 buffer containing the other molecules to be tested. The concentration ranges varied depending on the molecule, its solubility, and its effectiveness in activating the receptor. All the solutions were made on the day of the test to prevent any oxidation of the compounds. If needed, the pH of each solution was adjusted by to pH 7.4 by adding NaOH. After 20 s of basal fluorescence calcium measurement, the cells were stimulated via automatic injection of a range of compounds in eight wells, and the signal emission was recorded for an additional 70 s, via a FlexStation 3® fluorometric microplate reader (Molecular Devices, San Jose, CA, USA). As a control, molecules were also tested on mock-transfected cells with the empty vector. The emitted fluorescence was measured at a wavelength of 510 nm after excitation at 488 nm. Each measurement was performed in duplicate on the same plate, and the experiments were carried out at least four times. Kinetic data were acquired via SoftMax Pro 5.4.6 software (Molecular Devices). For each well, the decrease in the raw fluorescence as the relative fluorescence changed was calculated as ΔF/F0. Replicates were averaged for the wells subjected to the same stimuli, the background signal was subtracted, and the fluorescence changes in mock-transfected cells were subtracted. The half-maximal effective concentration (EC50) and maximal signal amplitude (max ∆F/F0) were calculated via non-linear regression of the sigmoidal function four-parameter logistic equation [f(x) = min + (max − min)/(1 + (x/EC50)^nH)] via SigmaPlot 15.0 software (Grafiti LLC, Palo Alto, CA, USA). […] For a clearer understanding of the results, the amplitude values in certain dose-response curves were normalized to max ∆F/F0 = 1, to eliminate the differences in amplitude.
We also selected other residues surrounding the cavity that differed from species to species and were not directly involved in ligand binding but rather in dynamic phenomena resulting in signal transmission, namely, four residues located less deep in the binding cavity that we mutated to their human counterparts (Y281H, S282A, P67S, L72W) (Mut2) (Fig. S3). Finally, we targeted positions at the interface between the VFTs of TAS1R1 and TAS1R3. […] A double mutant (E221Q and R173L) (Mut3) was thus created. For each group, we constructed multisite mutants (penta-, quadruple-, or double-mutants) to assess their combined effects efficiently.
Experimental for hTAS1R1/rTAS1R3(Mut2): as §1
We also selected other residues surrounding the cavity that differed from species to species and were not directly involved in ligand binding but rather in dynamic phenomena resulting in signal transmission, namely, four residues located less deep in the binding cavity that we mutated to their human counterparts (Y281H, S282A, P67S, L72W) (Mut2) (Fig. S3).

For the compound `N[C@@H](CCC(=O)N[C@@H](CS)C(=O)NCC(=O)O)C(=O)O` [GSH, γ-L-glutamyl-L-cysteinyl-glycine], the values for the EC50 on hTAS1R1/rTAS1R3(Mut1) and at hTAS1R1/rTAS1R3(Mut2) were 9010 ± 697 µM and 1220 ± 488 µM, respectively. Moreover, the “effect of the added compound on the response to L-Glu” value at hTAS1R1/rTAS1R3(Mut1) (Mut1) is on record as “increased”. Also, the figures for the “response to the agonist alone” value on hTAS1R1/rTAS1R3(Mut1) (Mut1) and on hTAS1R1/rTAS1R3(Mut2) were “reduced” and “abolished”, respectively.

As for `CCCC(CCC)NC(=O)c1ccc2c(c1)OCO2` [S807, N-(heptan-4-yl)benzo[d][1,3]dioxole-5-carboxamide, reference compound], the EC50 worked out at 1.69 ± 0.1 µM on hTAS1R1/rTAS1R3(Mut1) and 1.59 ± 0.27 µM on hTAS1R1/rTAS1R3(Mut2). Besides, the “response to the agonist alone” value on hTAS1R1/rTAS1R3(Mut1) (Mut1) was “unaffected”; at hTAS1R1/rTAS1R3(Mut2), “severely impaired”.

As to `N[C@@H](CCC(=O)O)C(=O)O` [L-Glu, L-glutamic acid, reference compound], the “response to the agonist alone” value at hTAS1R1/rTAS1R3(Mut1) (Mut1) is given as “responded”; at hTAS1R1/rTAS1R3(Mut2), “abolished”.
